In patent US8835644B2, “Broad spectrum benzothiophene-nitrothiazolide and other antimicrobials” (University of Virginia Patent Foundation, priority 2009, dated 2014):
≈ marks a conversion by molar mass, not a printed value. Where a name gives a salt, the structure may show the parent alone. Read-outs that look alike come from different tables or passages of the source.

Key:
MRSA = assay: MIC testing by broth dilution, MRSA; format: cell-based, Staphylococcus aureus
Procedure: (§1) A standard broth dilution protocol was used in 96 well microplates containing a standard dilution of the microorganism to be tested in 100 microliters of the appropriate medium. Appropriate medium: E. coli, LB medium; Staphylococcus strains, Trypticase Soy; and for H. pylori and C. jejuni, Brain Heart Infusion. The compounds to be tested were set at 32 μg/ml in 200 microliters in well one and then serially diluted to provide a range from 32 to 0.06. The wells were scored visually at 24 h. The well where there was no growth was recorded as the MIC. Clostridium difficile was tested by agar diffusion and disk diffusion (Kirby Bower) methods under anaerobic conditions on Wilkins Chalgrin agar. In these assays, zone of inhibited growth was measured and compared by relative ratio to the zone recorded for NTZ.
(§2) Representative compounds of the invention were tested in a series of assays against a series of organisms as described above. […] The organisms tested include, C. difficile, H. pylori, C. jejuni, MRSA, S. epidermidis, and E. coli. S. epidermidis and E. coli were tested in the plank and biofilm assay. A disk diffusion assay was also used for C. difficile. Direct PFOR enzyme assays were also performed. All analogues and derivatives were not tested on every organism in every type of assay (the “-” in each table means that it was not tested).

S. epidermidis = assay: MIC testing by broth dilution, S. epidermidis plank; format: cell-based, Staphylococcus epidermidis
Procedure: as §1, §2

E. coli = assay: MIC testing by broth dilution, E. coli plank; format: cell-based, Escherichia coli
Procedure: as §1, §2

H. pylori = assay: MIC testing by broth dilution, H. pylori; format: cell-based, Helicobacter pylori
Procedure: as §1, §2

C. jejuni = assay: MIC testing by broth dilution, C. jejuni; format: cell-based, Campylobacter jejuni
Procedure: as §1, §2

[1] = broth dilution, Trypticase Soy, 24 h, read-out: MIC (μM) MRSA
[2] = broth dilution, Trypticase Soy, 24 h, read-out: MIC (μM) S. epidermidis Plank
[3] = broth dilution, LB medium, 24 h, read-out: MIC (μM) E. coli Plank
[4] = broth dilution, Brain Heart Infusion, 24 h, read-out: MIC (μM) H. pylori
[5] = broth dilution, Brain Heart Infusion, 24 h, read-out: MIC (μM) C. jejuni
[6] = Furan analogues table, read-out: MIC MRSA
[7] = planktonic, Furan analogues table, read-out: MIC S. epidermidis Plank
[8] = planktonic, Furan analogues table, read-out: MIC E. coli Plank
[9] = Furan analogues table, read-out: MIC H. pylori
[10] = Furan analogues table, read-out: MIC C. jejuni
[11] = Thiophene analogues table, read-out: MIC MRSA
[12] = planktonic, Thiophene analogues table, read-out: MIC S. epidermidis Plank
[13] = planktonic, Thiophene analogues table, read-out: MIC E. coli Plank
[14] = Thiophene analogues table, read-out: MIC H. pylori
[15] = Thiophene analogues table, read-out: MIC C. jejuni
[16] = Staphylococcus aureus, MRSA, 24 h, read-out: MIC (μM) MRSA
[17] = Staphylococcus epidermidis, 24 h, read-out: MIC (μM) S. epidermidis Plank
[18] = Escherichia coli, 24 h, read-out: MIC (μM) E. coli Plank
[19] = Helicobacter pylori, 24 h, read-out: MIC (μM) H. pylori
[20] = Campylobacter jejuni, 24 h, read-out: MIC (μM) C. jejuni

Row | Structure (SMILES) | MIC (MRSA; [1]) | MIC (S. epidermidis; [2]) | MIC (E. coli; [3]) | MIC (H. pylori; [4]) | MIC (C. jejuni; [5]) | also measured
1 | O=C(Nc1ncc([N+](=O)[O-])s1)c1cc(F)c(F)cc1F [VPC16b1012] | 33.0 µM (≈ 10 µg/mL) | 33.0 µM (≈ 10 µg/mL) | 105.5 µM (≈ 32 µg/mL) | 0.8 µM (≈ 0.243 µg/mL) | 9.9 µM (≈ 3 µg/mL) | –
2 | O=C(Nc1ncc([N+](=O)[O-])s1)c1ccc(-c2ccc3c(c2)OCO3)o1 [VPC16b1132] | – | – | – | – | – | MIC (MRSA; [6]): 89.1 µM (≈ 32 µg/mL); MIC (S. epidermidis; [7]): 89.1 µM (≈ 32 µg/mL); MIC (E. coli; [8]): 89.1 µM (≈ 32 µg/mL); MIC (H. pylori; [9]): 1.4 µM (≈ 0.503 µg/mL); MIC (C. jejuni; [10]): 89.1 µM (≈ 32 µg/mL)
3 | O=C(Nc1ncc([N+](=O)[O-])s1)c1cc(F)c(F)c(F)c1 [VPC16b1014] | 29.7 µM (≈ 9.01 µg/mL) | 66.0 µM (≈ 20 µg/mL) | 105.5 µM (≈ 32 µg/mL) | 1.2 µM (≈ 0.364 µg/mL) | 4.9 µM (≈ 1.49 µg/mL) | –
4 | O=C(COc1ccccc1C(=O)Nc1ncc([N+](=O)[O-])s1)NCCN1CCOCC1 [VPC162065] | 73.5 µM (≈ 32 µg/mL) | 27.6 µM (≈ 12 µg/mL) | 73.5 µM (≈ 32 µg/mL) | 2.3 µM (≈ 1 µg/mL) | 36.7 µM (≈ 16 µg/mL) | –
5 | Cc1cccc(-c2ccc(C(=O)Nc3ncc([N+](=O)[O-])s3)s2)c1 [VPC16b2011] | – | – | – | – | – | MIC (MRSA; [11]): 92.6 µM (≈ 32 µg/mL); MIC (S. epidermidis; [12]): 92.6 µM (≈ 32 µg/mL); MIC (E. coli; [13]): 92.6 µM (≈ 32 µg/mL); MIC (H. pylori; [14]): 2.2 µM (≈ 0.76 µg/mL); MIC (C. jejuni; [15]): 92.6 µM (≈ 32 µg/mL)
6 | O=C(Nc1ncc([N+](=O)[O-])s1)c1ccc(-c2cccc(F)c2)o1 [VPC16b1115] | – | – | – | – | – | MIC (MRSA; [6]): 24.0 µM (≈ 8 µg/mL); MIC (S. epidermidis; [7]): 12.0 µM (≈ 4 µg/mL); MIC (E. coli; [8]): 96.0 µM (≈ 32 µg/mL); MIC (H. pylori; [9]): 1.5 µM (≈ 0.5 µg/mL); MIC (C. jejuni; [10]): 24.0 µM (≈ 8 µg/mL)
7 | NCCOC(=O)COc1ccccc1C(=O)Nc1ncc([N+](=O)[O-])s1 [VPC162082, 2-Aminoethyl 2-(2-(5-nitrothiazol-2-ylcarbamoyl)phenoxy)acetate hydrochloride] | – | – | – | – | – | MIC (MRSA; [16]): 79.4 µM; MIC (S. epidermidis; [17]): 79.4 µM; MIC (E. coli; [18]): 79.4 µM; MIC (H. pylori; [19]): 6.2 µM; MIC (C. jejuni; [20]): 29.8 µM
8 | O=C(C=Cc1ccc(C(F)(F)F)cc1)Nc1ncc([N+](=O)[O-])s1 [VPC161239] | 93.2 µM (≈ 32 µg/mL) | 2.9 µM (≈ 0.996 µg/mL) | 93.2 µM (≈ 32 µg/mL) | 0.6 µM (≈ 0.206 µg/mL) | 93.2 µM (≈ 32 µg/mL) | –
9 | Cc1ccccc1-c1ccc(C(=O)Nc2ncc([N+](=O)[O-])s2)o1 [VPC16a1103] | – | – | – | – | – | MIC (MRSA; [6]): 12.1 µM (≈ 3.98 µg/mL); MIC (S. epidermidis; [7]): 12.1 µM (≈ 3.98 µg/mL); MIC (E. coli; [8]): 97.2 µM (≈ 32 µg/mL); MIC (H. pylori; [9]): 3.8 µM (≈ 1.25 µg/mL); MIC (C. jejuni; [10]): 24.3 µM (≈ 8 µg/mL)
10 | O=C(Nc1ncc([N+](=O)[O-])s1)c1ccc(-c2ccco2)s1 [VPC16b1148] | – | – | – | – | – | MIC (MRSA; [11]): 24.9 µM (≈ 8 µg/mL); MIC (S. epidermidis; [12]): 12.4 µM (≈ 3.98 µg/mL); MIC (E. coli; [13]): 99.6 µM (≈ 32 µg/mL); MIC (H. pylori; [14]): 7.8 µM (≈ 2.51 µg/mL); MIC (C. jejuni; [15]): 12.4 µM (≈ 3.98 µg/mL)
11 | CN(C)CCOc1ccccc1C(=O)Nc1ncc([N+](=O)[O-])s1 [VPC162052] | 95.1 µM (≈ 32 µg/mL) | 95.1 µM (≈ 32 µg/mL) | 95.1 µM (≈ 32 µg/mL) | 1.5 µM (≈ 0.505 µg/mL) | 17.8 µM (≈ 5.99 µg/mL) | –
12 | CCCCCCNC(=O)COc1ccccc1C(=O)Nc1ncc([N+](=O)[O-])s1 [VPC162064] | 78.7 µM (≈ 32 µg/mL) | 4.9 µM (≈ 1.99 µg/mL) | 78.7 µM (≈ 32 µg/mL) | 1.9 µM (≈ 0.772 µg/mL) | 78.7 µM (≈ 32 µg/mL) | –
13 | O=C(Nc1ncc([N+](=O)[O-])s1)c1ccc(-c2ccccc2)o1 [VPC16c1020] | – | – | – | – | – | MIC (MRSA; [6]): 101.5 µM (≈ 32 µg/mL); MIC (S. epidermidis; [7]): 101.5 µM (≈ 32 µg/mL); MIC (E. coli; [8]): 101.5 µM (≈ 32 µg/mL); MIC (H. pylori; [9]): 2.4 µM (≈ 0.757 µg/mL); MIC (C. jejuni; [10]): 101.5 µM (≈ 32 µg/mL)
14 | Cn1cc(C(=O)Nc2ncc([N+](=O)[O-])s2)c2ccccc21 [VPC16a1014] | 105.9 µM (≈ 32 µg/mL) | 5.0 µM (≈ 1.51 µg/mL) | 105.9 µM (≈ 32 µg/mL) | 1.2 µM (≈ 0.363 µg/mL) | 19.9 µM (≈ 6.02 µg/mL) | –
15 | O=C(Nc1ncc([N+](=O)[O-])s1)c1c(F)cccc1F [VPC16b1010] | 28.0 µM (≈ 7.99 µg/mL) | 28.0 µM (≈ 7.99 µg/mL) | 112.2 µM (≈ 32 µg/mL) | 0.7 µM (≈ 0.2 µg/mL) | 14.0 µM (≈ 3.99 µg/mL) | –
16 | Cl.O=C(Nc1ncc([N+](=O)[O-])s1)c1ccccc1OCCNC(=O)C1CCNCC1 [VPC162068] | 70.2 µM | 70.2 µM | 70.2 µM | 52.6 µM | 35.1 µM | –
17 | O=C(Nc1nccs1)c1sc2cc(F)ccc2c1Cl [VPC161235] | – | – | – | – | – | MIC (MRSA; Staphylococcus aureus, MRSA, Thiophene analogues table, read-out: MIC MRSA): 102 µM (≈ 32 µg/mL); MIC (S. epidermidis; Staphylococcus epidermidis, planktonic, Thiophene analogues table, read-out: MIC S. epidermidis Plank): 102 µM (≈ 32 µg/mL); MIC (E. coli; Escherichia coli, planktonic, Thiophene analogues table, read-out: MIC E. coli Plank): 102 µM (≈ 32 µg/mL); MIC (H. pylori; Helicobacter pylori, Thiophene analogues table, read-out: MIC H. pylori): 12.8 µM (≈ 4 µg/mL); MIC (C. jejuni; Campylobacter jejuni, Thiophene analogues table, read-out: MIC C. jejuni): 102 µM (≈ 32 µg/mL)
18 | O=C(Nc1ccccc1)Nc1ncc([N+](=O)[O-])s1 [VPC161223, 1-(5-Nitrothiazol-2-yl)-3-phenylurea] | – | – | – | – | – | MIC (MRSA; [16]): 30.3 µM (≈ 8.01 µg/mL); MIC (S. epidermidis; [17]): 30.3 µM (≈ 8.01 µg/mL); MIC (E. coli; [18]): 121 µM (≈ 32 µg/mL); MIC (H. pylori; [19]): 1.4 µM (≈ 0.37 µg/mL); MIC (C. jejuni; [20]): 30.3 µM (≈ 8.01 µg/mL)
19 | O=C(O)COc1ccc(C(=O)Nc2ncc([N+](=O)[O-])s2)cc1 [VPC162043] | 99.0 µM (≈ 32 µg/mL) | 99.0 µM (≈ 32 µg/mL) | 99.0 µM (≈ 32 µg/mL) | 99.0 µM (≈ 32 µg/mL) | 99.0 µM (≈ 32 µg/mL) | –
20 | O=C(Nc1ncc([N+](=O)[O-])s1)c1ccc(-c2ccoc2)o1 [VPC16b1142] | – | – | – | – | – | MIC (MRSA; [6]): 26.2 µM (≈ 8 µg/mL); MIC (S. epidermidis; [7]): 13.1 µM (≈ 4 µg/mL); MIC (E. coli; [8]): 104.8 µM (≈ 32 µg/mL); MIC (H. pylori; [9]): 1.6 µM (≈ 0.488 µg/mL); MIC (C. jejuni; [10]): 13.1 µM (≈ 4 µg/mL)
21 | O=C(COc1ccccc1C(=O)Nc1ncc([N+](=O)[O-])s1)Nc1ccccc1 [VPC162056] | 80.3 µM (≈ 32 µg/mL) | 80.3 µM (≈ 32 µg/mL) | 80.3 µM (≈ 32 µg/mL) | 0.9 µM (≈ 0.359 µg/mL) | 80.3 µM (≈ 32 µg/mL) | –
22 | O=C(Nc1ncc([N+](=O)[O-])s1)c1ccncc1F [VPC16a1053] | 119.3 µM (≈ 32 µg/mL) | 119.3 µM (≈ 32 µg/mL) | 119.3 µM (≈ 32 µg/mL) | 3.7 µM (≈ 0.992 µg/mL) | 14.9 µM (≈ 4 µg/mL) | –
23 | O=C(Nc1ncc([N+](=O)[O-])s1)c1ccc(F)cc1F [VPC16b1009] | 28.0 µM (≈ 7.99 µg/mL) | 42.1 µM (≈ 12 µg/mL) | 112.2 µM (≈ 32 µg/mL) | 0.4 µM (≈ 0.114 µg/mL) | 7.0 µM (≈ 2 µg/mL) | –
24 | O=C(Nc1ncc([N+](=O)[O-])s1)c1ccc(-c2ccsc2)s1 [VPC16b1154] | – | – | – | – | – | MIC (MRSA; [11]): 94.8 µM (≈ 32 µg/mL); MIC (S. epidermidis; [12]): 94.8 µM (≈ 32 µg/mL); MIC (E. coli; [13]): 94.8 µM (≈ 32 µg/mL); MIC (H. pylori; [14]): 3.0 µM (≈ 1.01 µg/mL); MIC (C. jejuni; [15]): 94.8 µM (≈ 32 µg/mL)
